According to the NIST ThermoML archive (doi:10.1021/je060429r):
Numbers after ± are expanded uncertainties.

Details: Transpiration method

Oc1cccc(Cl)c1Cl [2,3-dichlorophenol]
Details | vapor or sublimation pressure [kPa]
294.3 K, Crystal | 0.0078 ± 0.0004
297.3 K, Crystal | 0.0107 ± 0.0006
300.2 K, Crystal | 0.0149 ± 0.0008
303.2 K, Crystal | 0.0192 ± 0.001
306.2 K, Crystal | 0.0267 ± 0.0013
309.2 K, Crystal | 0.0351 ± 0.0018
312.2 K, Crystal | 0.0482 ± 0.0024
315.2 K, Crystal | 0.0633 ± 0.0031
318.1 K, Crystal | 0.0798 ± 0.004
321.2 K, Crystal | 0.1081 ± 0.0054
324.3 K, Crystal | 0.1429 ± 0.0071
327.3 K, Crystal | 0.1835 ± 0.0089
331.2 K, Liquid | 0.2449 ± 0.012
334.3 K, Liquid | 0.2946 ± 0.014
337.2 K, Liquid | 0.3508 ± 0.017
340.3 K, Liquid | 0.4132 ± 0.02
343.2 K, Liquid | 0.4874 ± 0.023
346.2 K, Liquid | 0.5745 ± 0.027
349.2 K, Liquid | 0.6662 ± 0.032
352.1 K, Liquid | 0.7881 ± 0.037
355.2 K, Liquid | 0.9247 ± 0.044
358.2 K, Liquid | 1.078 ± 0.051

Oc1ccc(Cl)cc1 [4-chlorophenol]
Details | vapor or sublimation pressure [kPa]
283.2 K, Crystal | 0.00132 ± 7e-05
288.2 K, Crystal | 0.00236 ± 0.00012
291.2 K, Crystal | 0.00332 ± 0.00017
294.2 K, Crystal | 0.00459 ± 0.00023
297.2 K, Crystal | 0.00622 ± 0.00032
300.2 K, Crystal | 0.00839 ± 0.00043
303.2 K, Crystal | 0.01163 ± 0.00059
306.2 K, Crystal | 0.01571 ± 0.00079
309.2 K, Crystal | 0.02076 ± 0.001
311.2 K, Crystal | 0.02535 ± 0.0013
313.2 K, Crystal | 0.03092 ± 0.0015
318.2 K, Liquid | 0.0485 ± 0.0024
321.2 K, Liquid | 0.0615 ± 0.003
324.2 K, Liquid | 0.0754 ± 0.0036
327.2 K, Liquid | 0.0926 ± 0.0045
330.2 K, Liquid | 0.1141 ± 0.0055
333.2 K, Liquid | 0.1388 ± 0.0067
336.2 K, Liquid | 0.1699 ± 0.0082
339.2 K, Liquid | 0.2022 ± 0.0098
342.2 K, Liquid | 0.2534 ± 0.012
345.2 K, Liquid | 0.3058 ± 0.015
348.2 K, Liquid | 0.3684 ± 0.018
351.2 K, Liquid | 0.4409 ± 0.021

Clc1c(Cl)c(Cl)c(Cl)c(Cl)c1Cl [hexachlorobenzene]
Crystal
Details | vapor or sublimation pressure [kPa]
358 K | 0.00144 ± 7e-05
362.9 K | 0.00216 ± 0.00011
368.9 K | 0.00373 ± 0.00018
373.1 K | 0.00519 ± 0.00026
377.8 K | 0.00771 ± 0.00038
382.9 K | 0.01123 ± 0.00055
389 K | 0.01836 ± 0.00089
392.8 K | 0.0238 ± 0.0011
397.9 K | 0.03341 ± 0.0016
402.8 K | 0.04901 ± 0.0024

Oc1ccccc1Cl [2-chlorophenol]
Liquid
Details | vapor or sublimation pressure [kPa]
288.4 K | 0.0863 ± 0.0043
291.3 K | 0.1102 ± 0.0054
294.3 K | 0.1378 ± 0.0067
297.3 K | 0.1681 ± 0.0081
300.3 K | 0.2059 ± 0.01
303.3 K | 0.2559 ± 0.012
306.2 K | 0.3083 ± 0.015
309.2 K | 0.3763 ± 0.018
312.2 K | 0.4633 ± 0.022
315.2 K | 0.5579 ± 0.027
318.2 K | 0.6649 ± 0.032
321.2 K | 0.7992 ± 0.038

Oc1cccc(Cl)c1 [3-chlorophenol]
Details | vapor or sublimation pressure [kPa]
275.3 K, Crystal | 0.00082 ± 4e-05
276.6 K, Crystal | 0.00095 ± 5e-05
278.3 K, Crystal | 0.00115 ± 6e-05
280.3 K, Crystal | 0.00149 ± 8e-05
283.2 K, Crystal | 0.00212 ± 0.00011
285.2 K, Crystal | 0.00262 ± 0.00014
288.3 K, Crystal | 0.00366 ± 0.00019
291.3 K, Crystal | 0.00509 ± 0.00026
294.3 K, Crystal | 0.00721 ± 0.00037
297.3 K, Crystal | 0.00999 ± 0.0005
300.3 K, Crystal | 0.01323 ± 0.00066
302.2 K, Crystal | 0.01626 ± 0.00084
306 K, Crystal | 0.02395 ± 0.0012
308.3 K, Liquid | 0.0294 ± 0.0014
311.1 K, Liquid | 0.0361 ± 0.0018
314.2 K, Liquid | 0.0455 ± 0.0022
317.2 K, Liquid | 0.058 ± 0.0028
320.3 K, Liquid | 0.073 ± 0.0036
323.2 K, Liquid | 0.0905 ± 0.0044
326.2 K, Liquid | 0.1116 ± 0.0054
329.2 K, Liquid | 0.1366 ± 0.0066
332.2 K, Liquid | 0.1669 ± 0.008
335.2 K, Liquid | 0.2002 ± 0.0095

Oc1c(Cl)cccc1Cl [2,6-dichlorophenol]
Details | vapor or sublimation pressure [kPa]
298.5 K, Crystal | 0.0073 ± 0.0004
301.6 K, Crystal | 0.01 ± 0.0005
304.6 K, Crystal | 0.0137 ± 0.0007
307.4 K, Crystal | 0.0183 ± 0.0009
310.4 K, Crystal | 0.0245 ± 0.0012
313.4 K, Crystal | 0.0331 ± 0.0017
316.4 K, Crystal | 0.0437 ± 0.0022
319.4 K, Crystal | 0.0591 ± 0.003
322.4 K, Crystal | 0.0774 ± 0.0038
325.4 K, Crystal | 0.1006 ± 0.005
328.4 K, Crystal | 0.1312 ± 0.0065
331.3 K, Crystal | 0.1685 ± 0.0082
341.2 K, Liquid | 0.3444 ± 0.017
344.7 K, Liquid | 0.4173 ± 0.02
347.3 K, Liquid | 0.4838 ± 0.023
350.3 K, Liquid | 0.5727 ± 0.027
353.3 K, Liquid | 0.6745 ± 0.032
356.3 K, Liquid | 0.7745 ± 0.037
360.3 K, Liquid | 0.9734 ± 0.046
363.3 K, Liquid | 1.143 ± 0.054
366.3 K, Liquid | 1.315 ± 0.062
371.4 K, Liquid | 1.664 ± 0.078
